Several values for one entry are separate records, joined by “and”; a condition that tells them apart may be missing. Identical values can stand only once.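 Values below derive from 48-hour exposures of cells grown in 96-well plates, with endpoints linearly interpolated between the two concentrations bracketing the appropriate inhibition level. GI50 marks 50% less growth. The concentration for full growth arrest is given as TGI.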
How the values were obtained:
Assay in all cases: NCI tumour cell line growth inhibition, 48 h
[1] = tested on: A549 NSCLC
[2] = tested on: CCRF-CEM leukemia
[3] = tested on: HOP-18 NSCLC
[4] = tested on: MALME-3M melanoma
[5] = tested on: OVCAR-3 ovarian
[6] = tested on: RXF 393 renal
[7] = tested on: SK-MEL-5 melanoma
[8] = tested on: SNB-75 CNS
[9] = tested on: SW-620 colon
[10] = tested on: UACC-257 melanoma
[11] = tested on: UO-31 renal

In the case of `Nc1nn(CC(O)CO)c(=O)s1` (stereo not given), the TGI [1] is reported as > 100 µM, the TGI [2] is reported as > 100 µM and the TGI [3] is reported as > 100 µM. The TGI [4] was > 100 µM, the TGI [5] was > 100 µM and the TGI [6] was > 100 µM. For the same compound, the TGI [7] was > 100 µM, the TGI [8] was > 100 µM and the TGI [9] was > 100 µM. The TGI [10] was > 100 µM and the TGI [11] was > 100 µM.
In the case of `N/C(=N\N=C\c1cc2c(cc1Cl)OCO2)NO`, the TGI [1] is reported as > 100 µM, the TGI [2] is reported as > 100 µM and the TGI [3] is reported as > 100 µM. The TGI [4] was > 100 µM, the TGI [5] was > 24.6 µM and the TGI [6] was > 100 µM. The TGI [7] was 58.9 µM, the TGI [8] was > 100 µM and the TGI [9] was > 100 µM. The TGI [10] was > 100 µM and the TGI [11] was 64.2 µM.
For `O=C1OC(c2ccc(Cl)cc2)(c2ccc(Cl)cc2)c2c1ccc1ccccc21`, the TGI [1] was > 100 µM, the TGI [2] was > 100 µM and the TGI [3] was > 100 µM. The TGI [4] was > 100 µM, the TGI [5] was > 100 µM and the TGI [6] was > 100 µM. The TGI [7] was > 100 µM, the TGI [8] was > 100 µM and the TGI [9] was > 100 µM. The TGI [10] was > 100 µM and the TGI [11] was > 100 µM.
`CCOC(=O)C1=NN(c2ccc(Cl)cc2)C2=CC(C)=NN(C)C(=S)N21` was tested, and the TGI [1] was > 100 µM, the TGI [2] was > 100 µM and the TGI [5] was > 100 µM. For the same compound, the TGI [6] was 47.3 µM, the TGI [7] was > 100 µM and the TGI [8] was 94.7 µM. For the same compound, the TGI [9] was > 100 µM, the TGI [10] was > 100 µM and the TGI [11] was > 100 µM.
`C=CC[N+](CCO)(CCO)CCCCCCCCCCCCCCCCCC` showed a TGI [1] of 35 µM, a TGI [2] of 3.76 µM and a TGI [3] of 21.3 µM. It also gave a TGI [4] of 31.1 µM, a TGI [5] of 27.1 µM and a TGI [6] of 5.24 µM. It also gave a TGI [7] of 25.6 µM, a TGI [8] of 7.55 µM and a TGI [9] of 22.2 µM. For the same compound, the TGI [10] was 17.2 µM and the TGI [11] was 31.4 µM.
`COc1ccc(/C=N/n2cnc3c(c2=O)S/C(=C2/SC(=S)N(c4ccc(C)cc4)C2=O)N3c2ccccc2)cc1` was tested, and the TGI [1] was > 100 µM, the TGI [2] was > 100 µM and the TGI [4] was 60.3 µM. For the same compound, the TGI [5] was 74.2 µM, the TGI [6] was 35.8 µM and the TGI [8] was > 100 µM. The TGI [9] was > 100 µM and the TGI [11] was > 100 µM.
In the case of `C[C@H](CN1CC(=O)NC(=O)C1)N1CC(=O)NC(=O)C1`, the TGI [1] is reported as > 100 µM, the TGI [2] is reported as > 100 µM and the TGI [3] is reported as > 100 µM. For the same compound, the TGI [4] was > 100 µM, the TGI [5] was > 100 µM and the TGI [6] was > 100 µM. For the same compound, the TGI [7] was > 100 µM, the TGI [8] was > 100 µM and the TGI [9] was > 84.4 µM. For the same compound, the TGI [10] was > 100 µM and the TGI [11] was > 44.1 µM.
`C=C1C(=O)O[C@@H]2OC3(C)CCC4C(C)CCC1C42OO3` (stereo not given in full) was tested, and the GI50 [1] was 7.23 µM, the TGI [1] was 23.1 µM and 18.7 µM and the TGI [2] was 2.35 µM and 5.26 µM. For the same compound, the GI50 [3] was 20.1 µM, the TGI [3] was 34.5 µM and 30.2 µM and the GI50 [4] was 4.13 µM. The GI50 [5] was 7.42 µM, the TGI [5] was 19.6 µM and 10 µM and the GI50 [6] was 3.31 µM. It also gave a TGI [6] of 9.65 µM, a TGI [7] of 17.2 µM and a GI50 [8] of 13.1 µM. The TGI [8] was 25.9 µM and 7.74 µM, the GI50 [9] was 3.44 µM and the TGI [9] was 13.6 µM and 10.8 µM. For the same compound, the TGI [10] was 14.1 µM and 12 µM, the GI50 [11] was 4.57 µM and the TGI [11] was 17.5 µM and 22.1 µM.

— PubChem BioAssay (NCI)
